Reference: article PMC10866072, “Design, synthesis, molecular modelling and biological evaluation of novel 6-amino-5-cyano-2-thiopyrimidine derivatives as potent anticancer agents against leukemia and apoptotic inducers” (Journal of Enzyme Inhibition and Medicinal Chemistry, 2024)

What was measured:
A549/ATCC = type: cell-based; conditions: Homo sapiens, one dose 10^-5 M, 48 h
HCC-2998 = type: cell-based; conditions: Homo sapiens, one dose 10^-5 M, 48 h
786-0 = type: cell-based; conditions: Homo sapiens, one dose 10^-5 M, 48 h
HCT-15 = type: cell-based; conditions: Homo sapiens, one dose 10^-5 M, 48 h, read-out: % growth
SF-539 = type: cell-based; conditions: Homo sapiens, one dose 10^-5 M, 48 h
SNB-19 = type: cell-based; conditions: Homo sapiens, one dose 10^-5 M, 48 h, read-out: % growth
[1] = system: full NCI 60 cell lines panel; conditions: for activity at 10 µM: Homo sapiens, 60 cell, 48 h, read-out: Mean % growth; for activity on all 60 cancer cell lines tested (in words): one dose
NCI-H226 = type: cell-based; conditions: Homo sapiens, one dose 10^-5 M, 48 h
PC-3 = type: cell-based; conditions: Homo sapiens, one dose 10^-5 M, 48 h
SK-MEL-28 = type: cell-based; conditions: Homo sapiens, one dose 10^-5 M, 48 h
NCI/ADR-RES = type: cell-based; conditions: Homo sapiens, one dose 10^-5 M, 48 h
U251 = type: cell-based; conditions: Homo sapiens, U-251, one dose 10^-5 M, 48 h
SN12C = type: cell-based, human; conditions: Homo sapiens, one dose 10^-5 M, 48 h
SF-268 = type: cell-based; conditions: Homo sapiens, one dose 10^-5 M, 48 h, read-out: % growth
OVCAR-4 = type: cell-based; conditions: Homo sapiens, one dose 10^-5 M, 48 h
SK-MEL-5 = type: cell-based; conditions: Homo sapiens, one dose 10^-5 M, 48 h, read-out: % growth
SNB-75 = type: cell-based; conditions: Homo sapiens, one dose 10^-5 M, 48 h
IGROV1 = type: cell-based; conditions: Homo sapiens, IGROV-1, one dose 10^-5 M, 48 h, read-out: % growth
LOX IMVI = type: cell-based; conditions: Homo sapiens, one dose 10^-5 M, 48 h, read-out: % growth
MOLT-4 = type: cell-based; conditions: Homo sapiens, one dose 10^-5 M, 48 h, read-out: % growth
UACC-257 = type: cell-based; conditions: Homo sapiens, one dose 10^-5 M, 48 h
NCI-H460 = type: cell-based; conditions: Homo sapiens, one dose 10^-5 M, 48 h, read-out: % growth
KM12 = type: cell-based; conditions: Homo sapiens, one dose 10^-5 M, 48 h
CCRF-CEM = type: cell-based; conditions: Homo sapiens, one dose 10^-5 M, 48 h
MDA-MB-435 = type: cell-based; conditions: Homo sapiens, one dose 10^-5 M, 48 h, read-out: % growth
HOP-62 = type: cell-based; conditions: Homo sapiens, one dose 10^-5 M, 48 h
HS 578T = type: cell-based; conditions: Homo sapiens; one dose 10^-5 M, 48 h; HS 578T; read-out: % growth
HT29 = type: cell-based; conditions: Homo sapiens, HT-29, one dose 10^-5 M, 48 h
M14 = type: cell-based; conditions: Homo sapiens, one dose 10^-5 M, 48 h
OVCAR-8 = type: cell-based; conditions: Homo sapiens, one dose 10^-5 M, 48 h
HOP-92 = type: cell-based; conditions: Homo sapiens, one dose 10^-5 M, 48 h
EKVX = type: cell-based; conditions: Homo sapiens, one dose 10^-5 M, 48 h
UO-31 = type: cell-based; conditions: Homo sapiens, UO-31, 48 h, one dose 10^-5 M, 48 h
T-47D = type: cell-based; conditions: Homo sapiens, T47D, one dose 10^-5 M, 48 h, read-out: % growth
COLO 205 = type: cell-based; conditions: Homo sapiens, one dose 10^-5 M, 48 h
HCT-116 = type: cell-based; conditions: Homo sapiens, one dose 10^-5 M, 48 h, read-out: % growth
SR = type: cell-based; conditions: Homo sapiens, one dose 10^-5 M, 48 h
K-562 = type: cell-based; conditions: Homo sapiens, K562, one dose 10^-5 M, 48 h
MCF7 = type: cell-based; conditions: Homo sapiens, one dose 10^-5 M, 48 h, read-out: % growth
UACC-62 = type: cell-based; conditions: Homo sapiens, one dose 10^-5 M, 48 h
MDA-MB-231/ATCC = type: cell-based; conditions: Homo sapiens, one dose 10^-5 M, 48 h
TK-10 = type: cell-based; conditions: Homo sapiens, one dose 10^-5 M, 48 h
NCI-H23 = type: cell-based; conditions: Homo sapiens, one dose 10^-5 M, 48 h, read-out: % growth
SF-295 = type: cell-based; conditions: Homo sapiens, one dose 10^-5 M, 48 h
SW-620 = type: cell-based; conditions: Homo sapiens, one dose 10^-5 M, 48 h
ACHN = type: cell-based; conditions: Homo sapiens, one dose 10^-5 M, 48 h
CAKI-1 = type: cell-based; conditions: Homo sapiens, CAKI-1, 48 h, one dose 10^-5 M, 48 h
OVCAR-3 = type: cell-based; conditions: Homo sapiens, one dose 10^-5 M, 48 h
SK-MEL-2 = type: cell-based; conditions: Homo sapiens, one dose 10^-5 M, 48 h
NCI-H522 = type: cell-based; conditions: Homo sapiens, one dose 10^-5 M, 48 h
MDA-MB-468 = type: cell-based; conditions: Homo sapiens, one dose 10^-5 M, 48 h
A498 = type: cell-based; conditions: Homo sapiens, one dose 10^-5 M, 48 h
DU-145 = type: cell-based; conditions: Homo sapiens, one dose 10^-5 M, 48 h
SK-OV-3 = type: cell-based; conditions: Homo sapiens, one dose 10^-5 M, 48 h
MALME-3M = type: cell-based; conditions: Homo sapiens, one dose 10^-5 M, 48 h
BT-549 = type: cell-based; conditions: Homo sapiens, one dose 10^-5 M, 48 h
OVCAR-5 = type: cell-based; conditions: Homo sapiens, one dose 10^-5 M, 48 h
HL-60(TB) = type: cell-based; conditions: Homo sapiens, one dose 10^-5 M, 48 h
RPMI-8226 = type: cell-based; conditions: Homo sapiens, one dose 10^-5 M, 48 h

COc1ccc(/C=N\NC(=N)c2c(N)nc(S)nc2-c2ccc(N(C)C)cc2)cc1 [Compound 4d, 4-amino-N'-[(1Z)-(4-methoxyphenyl)methylene]-6-[4-(dimethylamino)phenyl]-2-mercapto pyrimidine-5-carboximidohydrazide]
% growth at 10 µM (A549/ATCC): 103%
% growth at 10 µM (HCC-2998): 108%
% growth at 10 µM (786-0): 98.3%
activity at 10 µM (HCT-15): 98.2%
% growth at 10 µM (SF-539): 108%
activity at 10 µM (SNB-19): 101%
activity at 10 µM [1]: 101%
activity on all 60 cancer cell lines tested (in words) [1]: weak activity
% growth at 10 µM (NCI-H226): 103%
percent cell growth at 10 µM (PC-3): 88.5%
% cell growth at 10 µM (SK-MEL-28): 105%
cell growth percent at 10 µM (NCI/ADR-RES): 107%
% growth at 10 µM (U251): 106%
% growth at 10 µM (SN12C): 100%
activity at 10 µM (SF-268): 97%
% growth at 10 µM (OVCAR-4): 96.8%
activity at 10 µM (SK-MEL-5): 102%
% growth at 10 µM (SNB-75): 101%
activity at 10 µM (IGROV1): 104%
activity at 10 µM (LOX IMVI): 101%
activity at 10 µM (MOLT-4): 101%
percent cell growth at 10 µM (UACC-257): 106%
activity at 10 µM (NCI-H460): 106%
% growth at 10 µM (KM12): 93.2%
% cell growth at 10 µM (CCRF-CEM): 78.9%
activity at 10 µM (MDA-MB-435): 96.7%
% growth at 10 µM (HOP-62): 106%
activity at 10 µM (HS 578T): 112%
% growth at 10 µM (HT29): 100%
% growth at 10 µM (M14): 96.1%
% growth of cells at 10 µM (OVCAR-8): 104%
% growth at 10 µM (HOP-92): 109%
% cell growth at 10 µM (EKVX): 99%
% cell growth at 10 µM (UO-31): 72%
activity at 10 µM (T-47D): 98.7%
% growth at 10 µM (COLO 205): 118%
activity at 10 µM (HCT-116): 108%
percent cell growth at 10 µM (SR): 102%
% growth at 10 µM (K-562): 101%
activity at 10 µM (MCF7): 95.2%
% growth at 10 µM (UACC-62): 94.3%
% growth at 10 µM (MDA-MB-231/ATCC): 103%
% cell growth at 10 µM (TK-10): 103%
activity at 10 µM (NCI-H23): 103%
% cell growth at 10 µM (SF-295): 104%
% growth at 10 µM (SW-620): 103%
% growth at 10 µM (ACHN): 103%
% growth at 10 µM (CAKI-1): 97.5%
% growth at 10 µM (OVCAR-3): 105%
% growth at 10 µM (SK-MEL-2): 109%
% growth at 10 µM (NCI-H522): 93.3%
percent cell growth at 10 µM (MDA-MB-468): 114%
% growth at 10 µM (A498): 119%
% growth at 10 µM (DU-145): 106%
% growth at 10 µM (SK-OV-3): 110%
% growth at 10 µM (MALME-3M): 98.4%
% cell growth at 10 µM (BT-549): 102%
percent cell growth at 10 µM (OVCAR-5): 103%
% growth at 10 µM (HL-60(TB)): 93.8%
% growth at 10 µM (RPMI-8226): 86.5%

CN(C)c1ccc(-c2nc(S)nc(N)c2C(=N)NN=Cc2ccc(Br)cc2)cc1 [Compound 4e, 4-amino-N'-[(4-bromophenyl)methylene]-6-[4-(dimethylamino)phenyl]-2-mercapto pyrimidine-5-carboximidohydrazide]
% growth at 10 µM (A549/ATCC): 108%
% growth at 10 µM (HCC-2998): 112%
% growth at 10 µM (786-0): 103%
activity at 10 µM (HCT-15): 102%
% growth at 10 µM (SF-539): 101%
activity at 10 µM (SNB-19): 99.4%
activity at 10 µM [1]: 104%
activity on all 60 cancer cell lines tested (in words) [1]: weak activity
% growth at 10 µM (NCI-H226): 95.7%
percent cell growth at 10 µM (PC-3): 91%
% cell growth at 10 µM (SK-MEL-28): 104%
cell growth percent at 10 µM (NCI/ADR-RES): 102%
% growth at 10 µM (U251): 112%
% growth at 10 µM (SN12C): 102%
activity at 10 µM (SF-268): 101%
% growth at 10 µM (OVCAR-4): 102%
activity at 10 µM (SK-MEL-5): 101%
% growth at 10 µM (SNB-75): 114%
activity at 10 µM (IGROV1): 102%
activity at 10 µM (LOX IMVI): 98.6%
activity at 10 µM (MOLT-4): 103%
percent cell growth at 10 µM (UACC-257): 109%
activity at 10 µM (NCI-H460): 107%
% growth at 10 µM (KM12): 110%
% cell growth at 10 µM (CCRF-CEM): 88.8%
activity at 10 µM (MDA-MB-435): 101%
% growth at 10 µM (HOP-62): 108%
activity at 10 µM (HS 578T): 108%
% growth at 10 µM (HT29): 104%
% growth at 10 µM (M14): 98.9%
% growth of cells at 10 µM (OVCAR-8): 113%
% growth at 10 µM (HOP-92): 112%
% cell growth at 10 µM (EKVX): 98.6%
% cell growth at 10 µM (UO-31): 69.9%
activity at 10 µM (T-47D): 97.5%
% growth at 10 µM (COLO 205): 161%
activity at 10 µM (HCT-116): 101%
percent cell growth at 10 µM (SR): 91.5%
% growth at 10 µM (K-562): 99.6%
activity at 10 µM (MCF7): 93.9%
% growth at 10 µM (UACC-62): 94%
% growth at 10 µM (MDA-MB-231/ATCC): 102%
% cell growth at 10 µM (TK-10): 115%
activity at 10 µM (NCI-H23): 99.3%
% cell growth at 10 µM (SF-295): 104%
% growth at 10 µM (SW-620): 107%
% growth at 10 µM (ACHN): 105%
% growth at 10 µM (CAKI-1): 99.6%
% growth at 10 µM (OVCAR-3): 110%
% growth at 10 µM (SK-MEL-2): 107%
% growth at 10 µM (NCI-H522): 98.5%
percent cell growth at 10 µM (MDA-MB-468): 111%
% growth at 10 µM (A498): 118%
% growth at 10 µM (DU-145): 109%
% growth at 10 µM (SK-OV-3): 124%
% growth at 10 µM (MALME-3M): 98.6%
% cell growth at 10 µM (BT-549): 107%
percent cell growth at 10 µM (OVCAR-5): 104%
% growth at 10 µM (HL-60(TB)): 91.6%
% growth at 10 µM (RPMI-8226): 84.4%
